Test results reported in patent US20100022611A1 (THE UNIVERSITY COURT OF THE UNIVERSITY OF ABERDEEN, priority 2007, published 2010).
Read-outs that look alike come from different tables or passages of the source.

Legend:
[1] = target: T1, CB1 receptor (Mus musculus, UniProt P47746); assay: [35S]GTPγS binding assay in mouse brain membranes, antagonism of CP55940; format: biochemical; design: Whole brains from eight adult male mice were dissected and suspended in centrifugation buffer; from tissue; host or cells: mouse whole brain membranes
Text: (§1) The [^35S] GTPγS binding assay is simply a means of measuring G protein activation following agonist occupation of a GPCR. The significance of replacing endogenous GTP with radiolabeled [^35S] GTPγS is two-fold. […] GTPγS. Secondly, as with any radiolabelling, the aim is to allow quantitative analysis of a selected molecular species, in this case the degree of agonist binding can be gauged by measuring the subsequent levels of radioactivity in the desired tissue.
(§2) A vehicle control was an essential aspect of the experiment. […] The vehicle is made up of 10 μL of DMSO and 990 μL of binding buffer, resulting in the assay containing 0.1% vehicle.
(§3) Buffer; [^35S] […] The GTPγS binding assay was initiated by the addition of the [^35S] GTPγS. The assay was incubated at 37° C. in a water bath for 1 hour. The assay was terminated by addition of ice-cold Tris/BSA buffer and rapid vacuum filtration using a 24-well Brandel (cell harvester) and glass-fibre filters that have been soaked in Tris/BSA buffer at 4° C. for 24 hours. Each well was washed 6 times with 1.2 mL of Tris/BSA buffer. The filters were then oven dried for 1 hour. The sections of filter papers were then separated and placed in individual vials, to which 5 mL of scintillation fluid was added. The filter papers were soaked in the scintillation fluid for 1 hour before the radioactivity in each vial was quantified by liquid scintillation spectrometry.
(§4) The data was fitted to a sigmoidal concentration-response curve using GraphPad Prism 4. Significance was defined by a one-sample t-test (GraphPad Prism 4), which compared mean % stimulation values S.E.M. to the basal binding level, 0.0% stimulation.

[2] = target: T2, cannabinoid CB1 receptor (Mus musculus, UniProt P47746); assay: Mouse brain competition binding assay, [3H]CP55940 displacement
T2 construct: Whole brains from eight adult male mice were dissected and suspended in centrifugation buffer; from tissue; host or cells: mouse whole brain membranes
Protocol: The competition binding assay is a […] radioligand binding assay, which determines the affinity of a given compound for a specific receptor site, in this instance, the cannabinoid CB1 receptor. Mouse brain membranes were the chosen tissue due to their high expression of CB1 receptors.
Whole brains from eight adult male mice were dissected and suspended in centrifugation buffer. The brains were then homogenised with a Polytron Homogeniser prior to centrifugation at 1,600 RCF, 4° C. for 10 minutes. Centrifugation produced a supernatant, which was collected, and then the remaining pellet was re-suspended in centrifugation buffer and centrifuged as before. All supernatants were combined, and centrifuged at 28,000 RCF, 4° C. for a further 20 minutes. The supernatant was then discarded and the pellet re-suspended in Buffer A before incubation for 10 minutes at 37° C. The membrane suspension was then centrifuged at RCF 23,000, 4° C. for 20 minutes. The pellet was then re-suspended in Buffer A and incubated for 40 minutes at room temperature. The suspension was then centrifuged for 15 minutes at RCF 11,000, 4° C., and the pellet was then re-suspended in Buffer B. Finally a Protein Assay was carried out to determine the protein content of the mouse membrane preparation. The membrane samples were then made up into 1 mL aliquots of 1 mg/mL protein concentration and stored at −80° C. The samples were removed and defrosted when they were required.
The competition binding assay utilizes standard binding buffer, comprising:
10 μL of 1 mM stock of CP55940 in DMSO was added to 990 μL of binding buffer.
This was essential to obtain a value for specific binding, which is defined as the difference between the binding that occurs in the presence and absence of […] unlabelled CP55940.
as §3, with “[^3H]” for “[^35S]”, “competition” for “GTPγS binding”, “membranes.” for “[^35S] GTPγS.”, “had” for “have”
Data were fitted to a one-site competition curve using GraphPad Prism 4.

[3] = target: CB1 receptor (Homo sapiens, UniProt P21554); assay: [35S]GTPγS binding, compound alone, 24 hours FBS-starved CB1 CHO cells; format: biochemical; settings: 1 nM to 10 μM
Text: as §1, §2, §3, §4
The vertical lines indicate S.E.M. (standard error of the mean) (*= P<0.05, **= P<0.01, ***= P<0.001, one-sample t-test) (n=4).

[4] = target: T1, CB1 receptor; assay: Electrically-evoked contractions of mouse isolated vas deferens, antagonism of CP55940; design: The isolated vas deferens was then removed from the mouse by cutting through its prostatic end; from tissue; host or cells: isolated vas deferens of male albino MF1 mice
Text: (§5) The vas deferens (or ductus deferens) is a muscular tube, approximately 3 mm in diameter and 30 cm in length, connecting the left and right epididymis to the ejaculatory ducts in order to move sperm. It is bound by connective tissue with an ample supply of blood vessels, nerves, and lymphatics. This in vitro bioassay exploits the expression of CB1 receptors on the presynaptic nerve terminals of this tubular structure.
(§6) The animals used in the study were male albino MF1 mice bred and were housed six to eight per-cage and were kept in a temperature-controlled room which was maintained on a fixed light-dark cycle. All mice were given free access to food and water. Subjects used in the study were a minimum of four weeks of age. Each mouse was stunned by striking the back of the head and killed by dislocation of the neck (cervical vertebrae). Following the killing, the mouse body weight was determined. A transverse incision, approximately of 1.5 cm, was made in the skin with the aid of dissection scissors. A similar-sized transverse incision was made through the lower abdominal wall. […] This was used to identify the vas deferens, which is attached to the testis via the epididymis. Gripping the epididymis with forceps, the vas deferens was cut free first from the testis and then from the connective tissue. The isolated vas deferens was then removed from the mouse by cutting through its prostatic end. This procedure was repeated on the right testis. It was important that throughout the latter two stages of this dissection, care was taken to ensure the vas deferens was not overstretched. In addition to their vas deferens, these animals were euthanized for use of their brain and small intestine by fellow researchers in different research fields. This minimisation of the number of animals euthanized complied with the European Community guidelines.
(§7) During transit, the two isolated vas deferens from each mice were kept moist in a glass vial filled with warm modified Mg^2+-free Krebs' solution. Before setting the tissue up in an organ bath, further removal of connective tissue, mesentery, and the epididymis was performed; cotton thread was tied securely to both end of the vas deferens.
(§8) The one-tailed thread was attached to the Pioden UF1 isometric transducer (Harvard Apparatus) and the two-tailed thread hung out of the bottom of the bath. The latter served as an anchor point for applying tension. […] Contractile activity was recorded using the isometric transducer and the output monitored by a computer connected to the data recording and analysis system (MacLab or PowerLab). The tissues were then ready for stimulation. […]

[5] = target: T1, CB1 receptor; assay: [35S]GTPγS binding, compound alone (Table 2, Function); format: biochemical; design: from tissue
Text: as §1, §2, §3, §4

[6] = target: T1, CB1 receptor; assay: Electrically-evoked contractions of isolated mouse vas deferens, compound alone; design: The isolated vas deferens was then removed from the mouse by cutting through its prostatic end; from tissue; host or cells: isolated vas deferens of male albino MF1 mice; settings: 1 μM, tested alone
Text: as §5, §6, §7, §8

[7] = patients, clinical trials; cited from earlier work
[8] = mouse brain membranes, [3H]CP55940 0.7 nM, read-out: Ki (nM) [affinity] Mouse Brain [3H]CP55940 Displacement

T1 sequence (P47746 whole entry): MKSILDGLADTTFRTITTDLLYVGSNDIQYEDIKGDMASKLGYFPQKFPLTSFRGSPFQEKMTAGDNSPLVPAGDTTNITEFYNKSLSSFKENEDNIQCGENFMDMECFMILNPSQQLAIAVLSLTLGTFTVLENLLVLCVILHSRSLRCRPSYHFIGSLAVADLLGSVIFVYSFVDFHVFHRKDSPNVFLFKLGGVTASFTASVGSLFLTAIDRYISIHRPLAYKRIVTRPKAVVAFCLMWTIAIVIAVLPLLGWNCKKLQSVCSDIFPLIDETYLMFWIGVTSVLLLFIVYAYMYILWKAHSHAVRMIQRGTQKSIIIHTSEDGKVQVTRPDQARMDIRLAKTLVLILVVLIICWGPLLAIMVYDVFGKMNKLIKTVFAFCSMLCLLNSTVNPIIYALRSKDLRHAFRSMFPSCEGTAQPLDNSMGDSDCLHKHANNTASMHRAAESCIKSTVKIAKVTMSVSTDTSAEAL
T2 sequence (P47746 whole entry): as above
Chain of CB1 receptor (Homo sapiens, UniProt P21554) (P21554 whole entry): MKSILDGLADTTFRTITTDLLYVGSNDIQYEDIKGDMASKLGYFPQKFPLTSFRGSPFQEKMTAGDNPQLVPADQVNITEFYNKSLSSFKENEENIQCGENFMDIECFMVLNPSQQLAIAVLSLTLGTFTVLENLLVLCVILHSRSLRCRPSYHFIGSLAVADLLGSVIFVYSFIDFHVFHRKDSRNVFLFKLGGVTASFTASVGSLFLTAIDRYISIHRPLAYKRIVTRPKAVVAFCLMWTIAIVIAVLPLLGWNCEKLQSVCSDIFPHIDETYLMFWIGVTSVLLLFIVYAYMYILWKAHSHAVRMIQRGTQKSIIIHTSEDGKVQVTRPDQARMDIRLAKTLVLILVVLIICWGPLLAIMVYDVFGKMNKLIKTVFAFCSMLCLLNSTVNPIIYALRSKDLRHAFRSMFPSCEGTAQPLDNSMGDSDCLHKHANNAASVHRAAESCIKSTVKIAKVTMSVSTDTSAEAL

Row | SMILES | Ki [2, 8] [nM] | Function Mouse Brain [35S]GTPγS Alone ([5]; compound alone) | Ki [2] [nM] | also measured
1 | Cc1c(C(=O)CC2CCCCC2)nn(-c2ccc(Cl)cc2Cl)c1-c1ccc(Cl)cc1 [ABD395] | 3.78 | Neutral antagonist | – | Shift in the log concentration response curve for CP55940, [35S]GTPγS [1]: right-ward shift; Effect on [35S]GTPγS binding, compound alone [3]: only a small increase; Shift in the log concentration response curve for CP55940, vas deferens contraction [4]: right-ward shift; Effect on electrically-evoked contractions of isolated mouse vas deferens [6]: neither inhibited nor significantly enhanced
2 | Cc1c(C(=O)CC2CCCCC2)nn(-c2ccc(Cl)cc2Cl)c1-c1ccc(Br)cc1 [ABD399] | – | Neutral antagonist | 12.3 | Shift in the log concentration response curve for CP55940, [35S]GTPγS [1]: right-ward shift; Effect on [35S]GTPγS binding, compound alone [3]: no reduction; Shift in the log concentration response curve for CP55940, vas deferens contraction [4]: right-ward shift; Effect on electrically-evoked contractions of isolated mouse vas deferens [6]: neither inhibited nor significantly enhanced
3 | Cc1c(C(O)CC2CCCCC2)nn(-c2ccc(Cl)cc2Cl)c1-c1ccc(Br)cc1 (stereo not drawn) [ABD402, 1-[5-(4-Bromophenyl)-1-(2,4-dichlorophenyl)-4-methylpyrazol-3-yl]-2-cyclohexylethanol] | – | Neutral antagonist | 32.3 | Shift in the log concentration response curve for CP55940, [35S]GTPγS [1]: right-ward shift; Effect on [35S]GTPγS binding, compound alone [3]: no reduction; Shift in the log concentration response curve for CP55940, vas deferens contraction [4]: right-ward shift; Effect on electrically-evoked contractions of isolated mouse vas deferens [6]: neither inhibited nor significantly enhanced
4 | Cc1c(C(=O)Cc2ccccc2)nn(-c2ccc(Cl)cc2Cl)c1-c1ccc(Cl)cc1 [ABD406] | 24.2 | Neutral antagonist | – | Shift in the log concentration response curve for CP55940, [35S]GTPγS [1]: right-ward shift; Effect on [35S]GTPγS binding, compound alone [3]: no reduction; Shift in the log concentration response curve for CP55940, vas deferens contraction [4]: right-ward shift; Effect on electrically-evoked contractions of isolated mouse vas deferens [6]: neither inhibited nor significantly enhanced
5 | Cc1cccc(CC(=O)c2nn(-c3ccc(Cl)cc3Cl)c(-c3ccc(Cl)cc3)c2C)c1 [ABD434] | – | – | 7.42 | Function Mouse Brain [35S]GTPγS Alone [5]: Neutral antagonist
6 | Cc1c(C(=O)Cc2ccc(F)cc2)nn(-c2ccc(Cl)cc2Cl)c1-c1ccc(Cl)cc1 [ABD436] | 7.15 | Neutral antagonist | – | –
7 | Cc1ccc(C(=O)c2nn(-c3ccc(Cl)cc3Cl)c(-c3ccc(Cl)cc3)c2C)cc1C [ABD437] | – | – | 14.2 | Function Mouse Brain [35S]GTPγS Alone [5]: Neutral antagonist
8 | COc1cccc(C(=O)c2nn(-c3ccc(Cl)cc3Cl)c(-c3ccc(Br)cc3)c2C)c1 [ABD438] | – | – | 7.7 | Function Mouse Brain [35S]GTPγS Alone [5]: Neutral antagonist
9 | COc1cccc(CC(=O)c2nn(-c3ccc(Cl)cc3Cl)c(-c3ccc(Br)cc3)c2C)c1 [ABD439] | 19.7 | Neutral antagonist | – | –
10 | Cc1ccc(CC(=O)c2nn(-c3ccc(Cl)cc3Cl)c(-c3ccc(Br)cc3)c2C)cc1 [ABD440] | 27.1 | Neutral antagonist | – | –
11 | Cc1c(C(=O)c2cccc(C(F)(F)F)c2)nn(-c2ccc(Cl)cc2Cl)c1-c1ccc(Cl)cc1 [ABD449] | – | – | 64.8 | Function Mouse Brain [35S]GTPγS Alone [5]: Neutral antagonist
12 | Cc1c(C(=O)c2ccc(F)cc2)nn(-c2ccc(Cl)cc2Cl)c1-c1ccc(Cl)cc1 [ABD450] | 63.2 | Neutral antagonist | – | –
13 | Cc1c(C(=O)c2cccc(F)c2)nn(-c2ccc(Cl)cc2Cl)c1-c1ccc(Cl)cc1 [ABD453] | 13.8 | Neutral antagonist | – | –
14 | Cc1c(C(=O)c2cccc(OC(F)(F)F)c2)nn(-c2ccc(Cl)cc2Cl)c1-c1ccc(Cl)cc1 [ABD454] | 26.7 | Neutral antagonist | – | –
15 | COc1ccc(C(=O)c2nn(-c3ccc(Cl)cc3Cl)c(-c3ccc(Br)cc3)c2C)cc1 [ABD459] | 8.6 | Neutral antagonist | – | –
16 | Cc1c(C(=O)NN2CCCCC2)nn(-c2ccc(Cl)cc2Cl)c1-c1ccc(Cl)cc1 [SR141716A, N-(piperidin-1-yl)-5-(4-chlorophenyl)-1-(2,4-dichlorophenyl)-4-methyl-1H-pyrazole-3-carboxamide] | – | – | – | Body weight lost each year [7]: 5-10%; First year drop-out rate due to side effects [7]: 40-50%
